“Also recorded” adds a separate entry of the source.
What was measured:
[1] = system: Fbn1^C1039G/+ mice (Marfan mice); test: Aortic root growth in Marfan mice by in vivo echocardiography; details: 500 μg/kg/day subcutaneous daily for 60 days, compared to Marfan mice treated with placebo, FIG. 1
Excerpt: (§1) In this Example, a total of 20 mice were used, with 8 mice being wild-type and 12 being Fbn1^C1039G+ mice, also referred to as “Marfan mice”, that are each […] for a fibrillin-1 (Fbn1) allele encoding a cysteine substitution, Cys1039Gly (C1039G), in an epidermal growth factor-like domain of Fbn1 (Fbn1^C1039G/+).
The Fbn1C1039G mice are a well-accepted model of Marfan Syndrome and the Fbn1 mutation is the most common class of mutation causing Marfan Syndrome. Typically, the aortic root in Fbn1C1039G mice undergoes progressive dilatation, evident as early as 2 weeks of age. […] This observed size difference generally becomes more pronounced over time. […] In addition, Fbn1C1039G mice show increased collagen deposition, which is an indirect marker of increased TGF-β signaling.
In order to determine the effects of angiotensin (1-7) peptides, here TXA127, on the normal course of disease development, both wild-type and Marfan mice were each separated into two groups once the mice reached 2 months of age. […]
The primary endpoint of this study was degree of aortic growth observed over the 60 day treatment period, as measured by in vivo echocardiography. […]

wild-type mice = test: Aortic root growth in wild-type mice by in vivo echocardiography; details: 500 μg/kg/day subcutaneous daily for 60 days, compared to wild type mice treated with placebo, FIG. 1
Excerpt: as §1
In order to determine the effects of angiotensin (1-7) peptides, here TXA127, on the normal course of disease development, both wild-type and Marfan mice were each separated into two groups once the mice reached 2 months of age. In each of the wild-type mice and Marfan mice, the placebo control group received daily subcutaneous saline injections for 60 days, while the TXA127 group received daily subcutaneous injections of TXA127 at a dose of 500 μg/kg/day for 60 days.
The primary endpoint of this study was degree of aortic growth observed over the 60 day treatment period, as measured by in vivo echocardiography. A baseline echocardiogram was performed just prior to the beginning of the treatment period and then again just prior to sacrifice. After the 60 day treatment period, mice were sacrificed and tissue samples were taken for histological and other analysis.

Question: Which “degree of aortic root growth” value [1] does the source give for “Asp^1-Arg^2-Val^3-Tyr^4-Ile^5-His^6-Pro^7 (DRVYIHP) [TXA127]” here?
Answer: highly significant reduction; also recorded: essentially eliminated

Question: And the aortic root growth (wild-type mice)?
Answer: no statistically significant effect
